# Data reported in BindingDB's records for patent US11306081 (Bristol Myers Squibb, 2022).
# Molecular target: Rho-associated protein kinase 2 (Homo sapiens, UniProt O75116)
# Experiment: In Vitro Assay
# Procedure: The effectiveness of compounds of the present invention as ROCK inhibitors can be determined in a 30 μL assay containing 20 mM HEPES, pH 7.5, 20 mM MgCl2, 0.015% Brij-35, 4 mM DTT, 5 μM ATP and 1.5 μM peptide substrate (FITC-AHA-AKRRRLSSLRA-OH) (SEQ ID No. 1). Compounds were dissolved in DMSO so that the final concentration of DMSO was <2%, and the reaction was initiated with Rho kinase variants. After incubation, the reaction was terminated by the addition of EDTA and the phosphorylated and non-phosphorylated peptides separated using a LABCHIP 3000 Reader (Caliper Life Sciences). […] Compounds were tested in dose-response format, and the inhibition of kinase activity was calculated at each concentration of compound. The inhibition data were fit using a curve-fitting program to determine the IC50; i.e., the concentration of compound required to inhibit 50% of kinase activity.
# Chain of Rho-associated protein kinase 2 (O75116 whole entry): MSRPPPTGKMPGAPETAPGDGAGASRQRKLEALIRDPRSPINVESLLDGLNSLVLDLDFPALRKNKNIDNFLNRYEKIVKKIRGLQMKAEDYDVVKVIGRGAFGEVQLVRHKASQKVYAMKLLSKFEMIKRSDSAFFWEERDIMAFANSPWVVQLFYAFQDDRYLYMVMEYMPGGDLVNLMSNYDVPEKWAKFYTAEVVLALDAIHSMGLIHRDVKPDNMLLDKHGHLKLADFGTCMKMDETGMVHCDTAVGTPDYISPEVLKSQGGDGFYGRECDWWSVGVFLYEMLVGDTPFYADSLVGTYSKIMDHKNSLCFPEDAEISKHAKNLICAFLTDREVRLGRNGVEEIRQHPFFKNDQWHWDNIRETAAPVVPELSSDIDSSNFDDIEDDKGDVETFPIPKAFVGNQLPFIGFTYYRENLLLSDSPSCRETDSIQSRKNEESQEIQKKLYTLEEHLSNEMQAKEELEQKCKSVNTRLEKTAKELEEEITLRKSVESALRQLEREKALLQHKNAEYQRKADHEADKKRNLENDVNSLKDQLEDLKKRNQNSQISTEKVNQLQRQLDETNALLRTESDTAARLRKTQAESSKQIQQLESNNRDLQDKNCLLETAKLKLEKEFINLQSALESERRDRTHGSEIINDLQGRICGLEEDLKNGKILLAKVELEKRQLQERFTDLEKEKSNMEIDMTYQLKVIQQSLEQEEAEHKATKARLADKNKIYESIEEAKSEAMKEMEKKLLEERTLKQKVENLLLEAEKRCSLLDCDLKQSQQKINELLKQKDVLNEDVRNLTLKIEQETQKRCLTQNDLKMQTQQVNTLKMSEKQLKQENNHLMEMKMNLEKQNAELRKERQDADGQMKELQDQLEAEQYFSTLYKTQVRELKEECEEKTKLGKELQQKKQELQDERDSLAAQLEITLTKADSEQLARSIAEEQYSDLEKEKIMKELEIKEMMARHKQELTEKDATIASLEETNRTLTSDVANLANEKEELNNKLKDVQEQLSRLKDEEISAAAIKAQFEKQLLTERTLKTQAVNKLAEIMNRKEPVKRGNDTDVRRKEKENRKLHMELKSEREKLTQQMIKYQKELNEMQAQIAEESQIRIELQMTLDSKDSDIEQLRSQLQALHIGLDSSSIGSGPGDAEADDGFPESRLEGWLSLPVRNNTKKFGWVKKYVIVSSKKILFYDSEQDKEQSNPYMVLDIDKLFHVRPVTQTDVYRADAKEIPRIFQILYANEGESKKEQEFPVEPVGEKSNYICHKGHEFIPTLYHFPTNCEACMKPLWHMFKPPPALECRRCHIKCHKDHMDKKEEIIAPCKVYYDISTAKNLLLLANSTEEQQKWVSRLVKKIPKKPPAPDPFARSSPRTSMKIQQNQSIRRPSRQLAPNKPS
smiles,measurement,value
"COc1ccc2sc(NC(=O)Cc3ccc(Oc4ncccc4C(N)=O)c(Cl)c3)nc2c1 [US11306081, Example 115]",IC50,8 nM
